How the values were obtained:
[1] = system: IGF-1; assay: Gene expression in islets from diabetic KKAy-mice, real time RT-PCR (Example 2): IGF-1; assay type: in vivo; settings: islets of KKAy-mice after nine weeks treatment, normalized to 18S rRNA
Procedure: (§1) A the end of the nine week period of the in vivo study in example 1 RNA was purified from Islets, muscle, liver and fat from the three experimental groups, using standard techniques as described in Kiergen, RNA easy.
(§2) Gene expression of PDX-1, IRS1, Beta2, 11beta-HSD-1, Akt1, C/EBP-alpha, CPT1, GLUT2, IGF1, IR and Ins1 was measured with Real time RT-PCR using Taq Man Assays normalized to 18S rRNA, using the standard protocol (ABI, USA). All reagents were obtained from (ABI, USA). All probes are standard probes obtainable from ABI, USA, under the specific probe code number, given in respect of each gene.

[2] = system: 11beta-HSD1; assay: Gene expression in islets from diabetic KKAy-mice, real time RT-PCR (Example 2): 11beta-HSD1; assay type: in vivo; settings: islets of KKAy-mice after nine weeks treatment, normalized to 18S rRNA
Procedure: as §1, §2

[3] = system: 11-beta-HSD-1; assay: Relative real time RT-PCR in islets of KKAy mice (Example 3): 11-beta-HSD-1; assay type: in vivo; settings: 9 weeks
Procedure: Islets were isolated by the collagenase digestion technique. In brief, the animals were anesthetized with pentobarbital (50 mg/kg intraperitoneally) and midline laparotomy was performed. The pancreas was retrogradely filled with 3 mL ice-cold Hanks balanced salt solution (([HBSS] Sigma Chemical, St Louis, Mo.) supplemented with 0.3 mg/ml collagenase Boehringer Mannheim GmbH, Germany). The pancreas was subsequently removed and incubated for 19 minutes at 37° C. After rinsing in HBSS, the islets were handpicked under a stereomicroscope and immediately transferred to a tubes containing 1 ml Trizol (Gibco/Invitrogene, Calsbad, Calif., USA). The islets isolated from the NMRI mice were incubated overnight at 37° C. and 95% normal atmosphere/5% CO2 in 10 ml RPMI 1640 containing 11.1 mmol/L glucose supplemented with penicillin G and 100 μg/mL streptomycin (all Gibco/Invitrogene, Calsbad, Calif., USA).
For each group, islets from 3-4 mice (180-200 islets) were pooled in 1 ml Trizol reagent (Gibco/lnvitrogene, Calsbad, Calif., USA) before RNA purification. Total RNA was extracted according to the manufactures' instructions. RNA was quantified by measuring absorbance at 260 and 280 nm. The quality of the RNA was checked by the Agilent 2100 bioanalyzer (Agilent, Santa Clara, USA). […]

[4] = system: Pdx1; assay: Affymetrix gene chip analysis of KKAy islets: Pdx1; assay type: in vivo, mice; settings: ISV vs. KKAy control islets, 9 weeks
Procedure: (§3) cRNA preparation and in vitro transcription: In total 6 Affymetrix arrays MOE430 2.0 probe array cartridge were used i.e. for analysis of 3 replicas for the KKAy control group and the ISV group, respectively. Each of the 6 samples consisted of pooled RNA from 3-4 KKAy mice. Preparation of target for hybridization was prepared from 340 ng of total RNA using MessageAmp™ II aRNA Amplification Kits (Ambion), according to the manufacturers instructions. Arrays were hybridised and scanned as described elsewhere (Kruhoffer et al., 2005).

[5] = system: IR; assay: Affymetrix gene chip analysis of KKAy islets: IR; assay type: in vivo, mice; settings: ISV vs. KKAy control islets, 9 weeks
Procedure: as §3

[6] = system: InsII; assay: Affymetrix gene chip analysis of KKAy islets: InsII; assay type: in vivo, mice; settings: ISV vs. KKAy control islets, 9 weeks
Procedure: as §3

[7] = system: Foxa2; assay: Affymetrix gene chip analysis of KKAy islets: Foxa2; assay type: in vivo, mice; settings: ISV vs. KKAy control islets, 9 weeks
Procedure: as §3

With C[C@@]12CC[C@@H]3[C@@](CC[C@H]4[C@@]3(C)CCC[C@@]4(C)C(=O)O)(CC1=O)C2 (single isomer, unassigned; ent-16) [ISV, ent-16-ketobeyeran-19-oic acid] the “decreased expression of IGF1 compared to standard diet” value [1] was 46%, the “decreased expression of 11beta-HSD1 compared to standard diet” value [2] was 61% and the “down regulation of 11-beta-HSD-1” value ([3]; RT-PCR) was 2.5 fold. For the same molecule, the “decreased expression of 11-beta-HSD-1, ISV group vs. control group” value ([3]; normalized to 18S rRNA) was 61%, the “array: change of Pdx1 expression” value [4] was “upregulation” and the “array: change of IR expression” value [5] was “no changes”. For the same molecule, the “array: change of InsII expression” value [6] was “no changes” and the “array: increased expression in Foxa2” value [7] was 1.9 fold.

Reference: patent US20100093861A1, “TREATMENT OF INSULIN RESISTANCE OR DISEASES ASSOCIATED WITH INSULIN RESISTANCE” (Stevia ApS, priority 2006, published 2010)
